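Where inhibition never reached the appropriate level, the endpoint shown equals the highest concentration tested. Otherwise, values were interpolated linearly from a five-concentration, 48-hour dose response in 96-well plates. Abbreviation: GI50, concentration required for 50% inhibition of growth.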 Activity calls are given as the source filed them. No stated cut-off is given here; in the data, active = GI50 up to about 1.1 µM and inactive = higher.
How the values were obtained:
Assay in all cases: NCI anticancer screen, dose series, 48 h
[1] = test system: HOP-92
[2] = test system: ACHN
[3] = test system: SN12C
[4] = test system: NCI-H460
[5] = test system: MDA-MB-231
[6] = test system: 786-0
[7] = test system: SF-539
[8] = test system: NCI/ADR-RES
[9] = test system: SW-620
[10] = test system: COLO 205
[11] = test system: HCT-116
[12] = test system: OVCAR-4
[13] = test system: RPMI-8226
[14] = test system: HOP-62
[15] = test system: KM12
[16] = test system: PC-3
[17] = test system: BT-549
[18] = test system: A549
[19] = test system: HT-29
[20] = test system: A498

Compound | GI50 [1] | GI50 [2] | GI50 [3] | GI50 [4] | GI50 [5] | GI50 [6] | GI50 [7] | GI50 [8] | GI50 [9] | GI50 [10] | GI50 [11] | GI50 [12] | GI50 [13] | GI50 [14] | GI50 [15] | GI50 [16] | GI50 [17] | GI50 [18] | GI50 [19] | GI50 [20]
COc1cc2oc(-c3ccc(O)cc3)cc(=O)c2c(OC)c1OC | > 100 µM (inactive) | > 100 µM (inactive) | > 100 µM (inactive) | > 100 µM (inactive) | > 100 µM (inactive) | > 100 µM (inactive) | > 100 µM (inactive) | > 100 µM (inactive) | > 100 µM (inactive) | > 100 µM (inactive) | > 100 µM (inactive) | > 100 µM (inactive) | > 100 µM (inactive) | > 100 µM (inactive) | > 100 µM (inactive) | > 100 µM (inactive) | > 100 µM (inactive) | > 100 µM (inactive) | > 100 µM (inactive) | > 100 µM (inactive)
CCOP(=O)(OCC)C(Nc1ccc(F)cc1)c1cccc([N+](=O)[O-])c1 (stereo not given) | 37.9 µM (inactive) | > 100 µM (inactive) | > 100 µM (inactive) | 65.9 µM (inactive) | 71.9 µM (inactive) | > 10 µM (inactive) | > 100 µM (inactive) | 47.1 µM (inactive) | > 100 µM (inactive) | 70.5 µM (inactive) | 46.8 µM (inactive) | 57.4 µM (inactive) | 76.9 µM (inactive) | > 100 µM (inactive) | 94 µM (inactive) | 67.5 µM (inactive) | 89.3 µM (inactive) | 58.7 µM (inactive) | 74.6 µM (inactive) | > 100 µM (inactive)
O=c1nc(N2CCNCC2)oc2cc(Cl)oc(=O)c12 | 3.94 µM (inactive) | 6.87 µM (inactive) | 6.11 µM (inactive) | 6.98 µM (inactive) | 12.1 µM (inactive) | 3.34 µM (inactive) | 2.25 µM (inactive) | 6.47 µM (inactive) | 2.26 µM (inactive) | 2.9 µM (inactive) | 2.43 µM (inactive) | 5.45 µM (inactive) | 1.67 µM (inactive) | 4.69 µM (inactive) | 5.96 µM (inactive) | 6.49 µM (inactive) | 0.716 µM (active) | 7.52 µM (inactive) | 3.91 µM (inactive) | 20.8 µM (inactive)
O=c1cc(NNCc2ccccc2)[nH]c(=O)[nH]1 | 4.68 µM (inactive) | > 100 µM (inactive) | > 100 µM (inactive) | > 100 µM (inactive) | > 100 µM (inactive) | > 100 µM (inactive) | > 100 µM (inactive) | > 100 µM (inactive) | > 100 µM (inactive) | > 100 µM (inactive) | > 10 µM (inactive) | > 100 µM (inactive) | > 100 µM (inactive) | > 100 µM (inactive) | > 100 µM (inactive) | > 100 µM (inactive) | > 100 µM (inactive) | > 100 µM (inactive) | > 100 µM (inactive) | > 100 µM (inactive)
CNC(=O)CCC(NC(C)=O)C(=O)NC(Cc1ccc(NC(=O)CCCCC(C)=O)cc1)C(=O)NC(CCC(=O)NC)C(=O)NC (stereo not given) | > 100 µM (inactive) | > 100 µM (inactive) | > 100 µM (inactive) | > 100 µM (inactive) | > 100 µM (inactive) | > 100 µM (inactive) | > 100 µM (inactive) | > 100 µM (inactive) | > 100 µM (inactive) | > 100 µM (inactive) | > 100 µM (inactive) | > 100 µM (inactive) | > 100 µM (inactive) | > 100 µM (inactive) | > 100 µM (inactive) | > 100 µM (inactive) | > 100 µM (inactive) | > 100 µM (inactive) | > 100 µM (inactive) | > 100 µM (inactive)
C/C(=N\NC(=[Se])N1CCN(c2ccccn2)CC1)c1ccccn1 | 0.508 µM (active) | 2.37 µM (inactive) | 0.222 µM (active) | 0.0269 µM (active) | 0.01 µM (active) | 0.243 µM (active) | 2.51 µM (inactive) | 0.0023 µM (active) | 0.01 µM (active) | 0.01 µM (active) | 0.01 µM (active) | 0.0933 µM (active) | 0.036 µM (active) | 0.0728 µM (active) | 0.598 µM (active) | 0.01 µM (active) | 4.15 µM (inactive) | 3.72 µM (inactive) | 0.01 µM (active) | 4.51 µM (inactive)
O=C(O)c1nc2ccc(C(F)(F)F)cc2nc1NCc1ccc(Cl)c(Cl)c1 | 15.7 µM (inactive) | 15.4 µM (inactive) | 15.5 µM (inactive) | 16 µM (inactive) | 16.8 µM (inactive) | 15.9 µM (inactive) | 19.5 µM (inactive) | 22.2 µM (inactive) | 19.4 µM (inactive) | 20.1 µM (inactive) | 16.2 µM (inactive) | 18.5 µM (inactive) | 27.7 µM (inactive) | 14.8 µM (inactive) | 16.3 µM (inactive) | 15.3 µM (inactive) | 17.5 µM (inactive) | 16.1 µM (inactive) | 15.2 µM (inactive) | 17.5 µM (inactive)
O=C(/C=C/c1ccc(O)cc1)c1cc(-c2cc(CCC(=O)c3ccc(O)cc3O)ccc2O)c(O)cc1O | 15.2 µM (inactive) | > 50 µM (inactive) | 32.2 µM (inactive) | 23.8 µM (inactive) | 37.8 µM (inactive) | 25.6 µM (inactive) | 10.8 µM (inactive) | > 50 µM (inactive) | 29.9 µM (inactive) | 11.4 µM (inactive) | 19.8 µM (inactive) | 19.7 µM (inactive) | 16.3 µM (inactive) | 27.4 µM (inactive) | 19.8 µM (inactive) | 22.6 µM (inactive) | 36.1 µM (inactive) | > 50 µM (inactive) | 14.4 µM (inactive) | 24.8 µM (inactive)
Cc1ccccc1OC(C)C(=O)NN1C(=O)CC(=O)NC1=S (stereo not given) | > 100 µM (inactive) | 84.5 µM (inactive) | > 100 µM (inactive) | > 100 µM (inactive) | > 100 µM (inactive) | > 100 µM (inactive) | > 100 µM (inactive) | > 100 µM (inactive) | > 100 µM (inactive) | > 100 µM (inactive) | > 100 µM (inactive) | 63.2 µM (inactive) | > 100 µM (inactive) | > 100 µM (inactive) | 92 µM (inactive) | > 100 µM (inactive) | > 100 µM (inactive) | 68.9 µM (inactive) | > 100 µM (inactive) | > 100 µM (inactive)
Cc1cc(N(CCOS(C)(=O)=O)CCOS(C)(=O)=O)ccc1/C=N/c1ccc(-c2csc(-c3ccccc3)n2)c(Cl)c1 | 9.64 µM (inactive) | 0.575 µM (active) | 8.81 µM (inactive) | 0.0647 µM (active) | 20.6 µM (inactive) | 2.05 µM (inactive) | 3.94 µM (inactive) | 13.3 µM (inactive) | 5.2 µM (inactive) | 1.64 µM (inactive) | 12.8 µM (inactive) | 16 µM (inactive) | 11.2 µM (inactive) | 6.05 µM (inactive) | 11.2 µM (inactive) | 14.8 µM (inactive) | 19.2 µM (inactive) | 1.95 µM (inactive) | 9.91 µM (inactive) | 1.6 µM (inactive)
Brc1ccc2c(-c3csc(-c4c[nH]c5ccc(Br)cc45)n3)c[nH]c2c1 | 3.2 µM (inactive) | 2.96 µM (inactive) | 5.92 µM (inactive) | 2.44 µM (inactive) | 3.42 µM (inactive) | 2.31 µM (inactive) | 3.87 µM (inactive) | 4.83 µM (inactive) | 3.65 µM (inactive) | 2.88 µM (inactive) | 3.64 µM (inactive) | 6.9 µM (inactive) | 3.44 µM (inactive) | 12.1 µM (inactive) | 2.42 µM (inactive) | 4.81 µM (inactive) | 12.6 µM (inactive) | 4.2 µM (inactive) | 1.76 µM (inactive) | 3.01 µM (inactive)
C[C@@H](CCO)OC1OC(COC(=O)C(C)(C)C)C(OC(=O)C(C)(C)C)C(OC(=O)C(C)(C)C)C1OC(=O)C(C)(C)C (stereo not given in full) | 13.2 µM (inactive) | 34.2 µM (inactive) | 22.1 µM (inactive) | 16.1 µM (inactive) | 3.4 µM (inactive) | 39.5 µM (inactive) | 33.4 µM (inactive) | > 100 µM (inactive) | 51.1 µM (inactive) | > 100 µM (inactive) | 18 µM (inactive) | 27 µM (inactive) | 15.5 µM (inactive) | 85.5 µM (inactive) | > 10 µM (inactive) | 22.2 µM (inactive) | 73.5 µM (inactive) | 14.1 µM (inactive) | 13.6 µM (inactive) | > 100 µM (inactive)
CS(=O)(=O)Nc1ccc2c(c1)N(S(C)(=O)=O)CC2CCl (stereo not given) | > 100 µM (inactive) | > 100 µM (inactive) | > 100 µM (inactive) | > 100 µM (inactive) | > 100 µM (inactive) | > 100 µM (inactive) | > 100 µM (inactive) | > 100 µM (inactive) | > 100 µM (inactive) | > 100 µM (inactive) | > 100 µM (inactive) | > 100 µM (inactive) | > 100 µM (inactive) | > 100 µM (inactive) | > 100 µM (inactive) | > 100 µM (inactive) | > 100 µM (inactive) | > 100 µM (inactive) | > 100 µM (inactive) | > 100 µM (inactive)
O=C(Nc1cccc(-c2cn3ccccc3n2)c1)c1ccncc1 | 98.2 µM (inactive) | 41.1 µM (inactive) | 32.7 µM (inactive) | 16.1 µM (inactive) | 32 µM (inactive) | 64.4 µM (inactive) | 50.6 µM (inactive) | 21.7 µM (inactive) | 64.9 µM (inactive) | 31.3 µM (inactive) | 33.1 µM (inactive) | 34.7 µM (inactive) | 17.1 µM (inactive) | 33.2 µM (inactive) | 32.6 µM (inactive) | 35.9 µM (inactive) | 21.7 µM (inactive) | 44.9 µM (inactive) | 35.8 µM (inactive) | 76 µM (inactive)
